The record followed here is publication PMC9133015 (Nature Communications, 2022).

Where “and” joins values, the source holds several entries; their conditions need not be identical. Identical values can stand only once.

Assay in all cases: Kinase inhibitor specificity profiling (Reaction Biology Corporation)
What all share (format): biochemical
Set-up in all cases: % Enzyme Activity (relative to DMSO controls): concentration or dose not given beside the values

In experiment [1] the target is T1, panel of 370 protein kinases (Homo sapiens, UniProt O00506).
T1 construct: purchased Reaction Biology Corporation (assay service)
The note with it: 2 h, kinase STK25/YSK1; read-out: % Enzyme Activity (relative to DMSO controls).

Experiment [2] deals with T2, panel of 370 protein kinases (Homo sapiens, UniProt O43353).
T2 construct: purchased Reaction Biology Corporation (assay service)
T2 sequence (O43353 whole entry): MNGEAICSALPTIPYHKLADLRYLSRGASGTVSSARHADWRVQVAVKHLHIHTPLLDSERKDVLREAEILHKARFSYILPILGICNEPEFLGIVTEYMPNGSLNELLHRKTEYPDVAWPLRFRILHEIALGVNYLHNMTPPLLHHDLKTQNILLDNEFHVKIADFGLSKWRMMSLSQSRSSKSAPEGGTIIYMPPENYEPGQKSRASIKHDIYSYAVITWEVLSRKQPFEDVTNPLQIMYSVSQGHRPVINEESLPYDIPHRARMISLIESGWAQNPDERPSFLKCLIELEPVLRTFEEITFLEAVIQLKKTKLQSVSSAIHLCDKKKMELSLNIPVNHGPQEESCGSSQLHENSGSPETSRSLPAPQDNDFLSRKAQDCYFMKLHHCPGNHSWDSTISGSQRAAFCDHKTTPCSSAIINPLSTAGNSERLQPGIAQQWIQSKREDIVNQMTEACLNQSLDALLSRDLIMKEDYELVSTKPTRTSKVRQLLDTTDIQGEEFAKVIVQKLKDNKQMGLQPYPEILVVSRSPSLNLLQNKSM
The note with it: 2 h, kinase RIPK2; read-out: % Enzyme Activity (relative to DMSO controls).

Experiment [3] concerns the target T3, panel of 370 protein kinases (Homo sapiens, UniProt O96017).
T3 construct: purchased Reaction Biology Corporation (assay service)
The conditions noted are these: 2 h, kinase CHK2; read-out: % Enzyme Activity (relative to DMSO controls).

For experiment [4], the target named is T4, panel of 370 protein kinases (Homo sapiens, UniProt P07947).
T4 construct: purchased Reaction Biology Corporation (assay service)
The conditions noted are these: 2 h, kinase YES/YES1; read-out: % Enzyme Activity (relative to DMSO controls).

Experiment [5] deals with T5, panel of 370 protein kinases (Homo sapiens, UniProt P11362).
T5 construct: purchased Reaction Biology Corporation (assay service)
T5 sequence (P11362 22-822): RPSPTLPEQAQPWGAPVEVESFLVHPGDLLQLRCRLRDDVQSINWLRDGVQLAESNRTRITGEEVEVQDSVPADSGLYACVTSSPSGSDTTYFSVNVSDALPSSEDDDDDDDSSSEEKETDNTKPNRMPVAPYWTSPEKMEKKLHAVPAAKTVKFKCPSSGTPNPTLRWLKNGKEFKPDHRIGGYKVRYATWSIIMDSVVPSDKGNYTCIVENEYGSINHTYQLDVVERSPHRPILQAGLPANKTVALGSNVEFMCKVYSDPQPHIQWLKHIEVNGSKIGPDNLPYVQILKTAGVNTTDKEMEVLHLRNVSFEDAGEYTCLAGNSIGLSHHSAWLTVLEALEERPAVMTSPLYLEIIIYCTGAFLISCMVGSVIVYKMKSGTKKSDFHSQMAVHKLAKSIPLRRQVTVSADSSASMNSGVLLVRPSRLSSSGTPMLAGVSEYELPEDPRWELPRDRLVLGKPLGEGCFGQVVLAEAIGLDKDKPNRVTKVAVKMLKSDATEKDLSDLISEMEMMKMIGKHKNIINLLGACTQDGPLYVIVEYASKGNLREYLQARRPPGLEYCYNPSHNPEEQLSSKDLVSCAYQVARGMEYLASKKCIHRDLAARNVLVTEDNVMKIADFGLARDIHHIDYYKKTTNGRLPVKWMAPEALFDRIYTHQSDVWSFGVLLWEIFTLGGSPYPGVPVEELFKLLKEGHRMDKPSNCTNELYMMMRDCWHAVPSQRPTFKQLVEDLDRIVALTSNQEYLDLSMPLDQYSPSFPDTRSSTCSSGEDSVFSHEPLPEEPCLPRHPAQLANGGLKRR
The conditions noted are these: 2 h, kinase FGFR1; read-out: % Enzyme Activity (relative to DMSO controls).

The target of experiment [6] is T6, panel of 370 protein kinases (Homo sapiens, UniProt P21802).
T6 construct: purchased Reaction Biology Corporation (assay service)
T6 sequence (P21802 22-821): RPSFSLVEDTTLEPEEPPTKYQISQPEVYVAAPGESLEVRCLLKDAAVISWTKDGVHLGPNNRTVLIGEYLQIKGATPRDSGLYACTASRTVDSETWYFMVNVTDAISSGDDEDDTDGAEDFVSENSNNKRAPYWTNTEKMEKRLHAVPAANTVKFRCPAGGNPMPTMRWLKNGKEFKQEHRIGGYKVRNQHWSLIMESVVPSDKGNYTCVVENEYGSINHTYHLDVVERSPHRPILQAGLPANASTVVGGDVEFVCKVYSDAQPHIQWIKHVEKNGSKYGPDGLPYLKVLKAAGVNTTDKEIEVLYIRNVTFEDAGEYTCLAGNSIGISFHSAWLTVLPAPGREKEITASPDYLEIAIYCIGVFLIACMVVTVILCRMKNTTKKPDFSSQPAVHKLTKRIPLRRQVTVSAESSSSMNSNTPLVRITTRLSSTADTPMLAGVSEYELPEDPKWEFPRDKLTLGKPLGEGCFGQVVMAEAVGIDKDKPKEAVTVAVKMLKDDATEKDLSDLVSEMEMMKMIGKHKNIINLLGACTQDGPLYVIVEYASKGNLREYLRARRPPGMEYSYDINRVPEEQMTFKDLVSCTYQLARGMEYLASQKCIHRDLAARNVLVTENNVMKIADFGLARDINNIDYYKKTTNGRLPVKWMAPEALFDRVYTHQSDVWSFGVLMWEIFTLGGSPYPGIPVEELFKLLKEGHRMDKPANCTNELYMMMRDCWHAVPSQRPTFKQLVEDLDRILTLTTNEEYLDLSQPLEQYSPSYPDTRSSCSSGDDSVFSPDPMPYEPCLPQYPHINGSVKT
The note with it: 2 h, kinase FGFR2; read-out: % Enzyme Activity (relative to DMSO controls).

For experiment [7], the target named is T7, panel of 370 protein kinases (Homo sapiens, UniProt P34947).
T7 construct: purchased Reaction Biology Corporation (assay service)
T7 sequence (P34947 whole entry): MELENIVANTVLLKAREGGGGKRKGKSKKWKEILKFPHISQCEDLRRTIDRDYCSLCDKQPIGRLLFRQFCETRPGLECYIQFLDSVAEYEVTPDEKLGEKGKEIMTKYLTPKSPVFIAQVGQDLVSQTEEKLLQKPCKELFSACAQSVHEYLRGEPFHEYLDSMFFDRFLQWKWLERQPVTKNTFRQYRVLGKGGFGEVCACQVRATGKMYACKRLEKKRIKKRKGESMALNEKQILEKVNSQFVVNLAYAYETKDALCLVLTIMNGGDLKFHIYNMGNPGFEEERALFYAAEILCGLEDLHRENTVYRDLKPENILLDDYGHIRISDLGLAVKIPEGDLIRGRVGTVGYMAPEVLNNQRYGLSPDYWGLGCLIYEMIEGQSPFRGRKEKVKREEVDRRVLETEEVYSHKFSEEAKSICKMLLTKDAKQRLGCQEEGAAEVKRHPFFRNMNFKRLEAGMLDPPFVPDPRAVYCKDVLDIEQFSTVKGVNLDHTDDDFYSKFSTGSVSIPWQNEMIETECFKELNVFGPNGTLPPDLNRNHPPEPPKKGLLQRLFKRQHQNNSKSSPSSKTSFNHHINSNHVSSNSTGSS
The conditions noted are these: 2 h, kinase GRK5; read-out: % Enzyme Activity (relative to DMSO controls).

In experiment [8] the target is T8, panel of 370 protein kinases (Homo sapiens, UniProt P36888).
T8 construct: purchased Reaction Biology Corporation (assay service)
The conditions noted are these: 2 h, kinase FLT3; read-out: % Enzyme Activity (relative to DMSO controls).

Experiment [9] addresses T9, panel of 370 protein kinases (Homo sapiens, UniProt P42681).
T9 construct: purchased Reaction Biology Corporation (assay service)
The conditions noted are these: 2 h, kinase TXK; read-out: % Enzyme Activity (relative to DMSO controls).

Experiment [10] has as its target T10, panel of 370 protein kinases (Homo sapiens, UniProt P43250).
T10 construct: purchased Reaction Biology Corporation (assay service)
The note with it: 2 h, kinase GRK6; read-out: % Enzyme Activity (relative to DMSO controls).

Experiment [11] addresses T11, panel of 370 protein kinases (Homo sapiens, UniProt P51617).
T11 construct: purchased Reaction Biology Corporation (assay service)
The conditions noted are these: 2 h, kinase IRAK1; read-out: % Enzyme Activity (relative to DMSO controls).

In experiment [12] the target is T12, panel of 370 protein kinases (Homo sapiens, UniProt P51955).
T12 construct: purchased Reaction Biology Corporation (assay service)
The conditions noted are these: 2 h, kinase NEK2; read-out: % Enzyme Activity (relative to DMSO controls).

The target in experiment [13] is T13, panel of 370 protein kinases (Homo sapiens, UniProt P54760).
T13 construct: purchased Reaction Biology Corporation (assay service)
The note with it: 2 h, kinase EPHB4; read-out: % Enzyme Activity (relative to DMSO controls).

Experiment [14] addresses T14, panel of 370 protein kinases (Homo sapiens, UniProt Q13177).
T14 construct: purchased Reaction Biology Corporation (assay service)
The conditions noted are these: 2 h, kinase PAK2; read-out: % Enzyme Activity (relative to DMSO controls).

The target in experiment [15] is T15, panel of 370 protein kinases (Homo sapiens, UniProt Q8TD08).
T15 construct: purchased Reaction Biology Corporation (assay service)
The conditions noted are these: 2 h, kinase ERK7/MAPK15; read-out: % Enzyme Activity (relative to DMSO controls).

Experiment [16] concerns the target T16, panel of 370 protein kinases (Homo sapiens, UniProt Q92630).
T16 construct: purchased Reaction Biology Corporation (assay service)
The note with it: 2 h, kinase DYRK2; read-out: % Enzyme Activity (relative to DMSO controls).

Experiment [17] has as its target T17, panel of 370 protein kinases (Homo sapiens, UniProt Q9H422).
T17 construct: purchased Reaction Biology Corporation (assay service)
The note with it: 2 h, kinase HIPK3; read-out: % Enzyme Activity (relative to DMSO controls).

The target in experiment [18] is T18, panel of 370 protein kinases (Homo sapiens, UniProt Q9HBH9).
T18 construct: purchased Reaction Biology Corporation (assay service)
The note with it: 2 h, kinase MNK2; read-out: % Enzyme Activity (relative to DMSO controls).

Experiment [19] deals with T19, panel of 370 protein kinases (Homo sapiens, UniProt Q9UBS0).
T19 construct: purchased Reaction Biology Corporation (assay service)
The conditions noted are these: 2 h, kinase p70S6Kb/RPS6KB2; read-out: % Enzyme Activity (relative to DMSO controls).

The target of experiment [20] is T20, panel of 370 protein kinases (Homo sapiens, UniProt Q9UK32).
T20 construct: purchased Reaction Biology Corporation (assay service)
T20 sequence (Q9UK32 whole entry): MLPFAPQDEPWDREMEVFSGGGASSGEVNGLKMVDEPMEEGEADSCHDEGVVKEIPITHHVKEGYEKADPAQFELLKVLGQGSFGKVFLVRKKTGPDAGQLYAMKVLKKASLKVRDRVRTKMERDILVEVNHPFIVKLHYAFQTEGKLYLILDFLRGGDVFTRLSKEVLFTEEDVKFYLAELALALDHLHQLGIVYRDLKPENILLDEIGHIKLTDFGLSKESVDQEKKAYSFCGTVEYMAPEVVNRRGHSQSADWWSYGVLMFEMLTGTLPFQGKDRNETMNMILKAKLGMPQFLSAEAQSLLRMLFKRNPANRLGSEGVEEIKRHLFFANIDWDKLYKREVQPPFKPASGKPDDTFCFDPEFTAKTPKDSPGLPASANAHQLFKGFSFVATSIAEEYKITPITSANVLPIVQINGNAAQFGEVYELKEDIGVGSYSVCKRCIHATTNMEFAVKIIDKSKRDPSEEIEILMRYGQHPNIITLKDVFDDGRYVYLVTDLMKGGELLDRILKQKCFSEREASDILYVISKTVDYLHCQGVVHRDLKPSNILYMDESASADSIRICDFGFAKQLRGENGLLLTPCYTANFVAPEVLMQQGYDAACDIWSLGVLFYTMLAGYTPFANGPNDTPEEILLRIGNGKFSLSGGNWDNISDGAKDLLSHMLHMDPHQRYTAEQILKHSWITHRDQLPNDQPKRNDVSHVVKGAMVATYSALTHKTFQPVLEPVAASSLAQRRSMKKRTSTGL
The note with it: kinase RSK4.

Experiment [21] concerns the target T21, panel of 370 protein kinases (Homo sapiens, UniProt Q9Y463).
T21 construct: purchased Reaction Biology Corporation (assay service)
The note with it: 2 h, kinase DYRK1B; read-out: % Enzyme Activity (relative to DMSO controls).

T11 sequence (P51617 whole entry): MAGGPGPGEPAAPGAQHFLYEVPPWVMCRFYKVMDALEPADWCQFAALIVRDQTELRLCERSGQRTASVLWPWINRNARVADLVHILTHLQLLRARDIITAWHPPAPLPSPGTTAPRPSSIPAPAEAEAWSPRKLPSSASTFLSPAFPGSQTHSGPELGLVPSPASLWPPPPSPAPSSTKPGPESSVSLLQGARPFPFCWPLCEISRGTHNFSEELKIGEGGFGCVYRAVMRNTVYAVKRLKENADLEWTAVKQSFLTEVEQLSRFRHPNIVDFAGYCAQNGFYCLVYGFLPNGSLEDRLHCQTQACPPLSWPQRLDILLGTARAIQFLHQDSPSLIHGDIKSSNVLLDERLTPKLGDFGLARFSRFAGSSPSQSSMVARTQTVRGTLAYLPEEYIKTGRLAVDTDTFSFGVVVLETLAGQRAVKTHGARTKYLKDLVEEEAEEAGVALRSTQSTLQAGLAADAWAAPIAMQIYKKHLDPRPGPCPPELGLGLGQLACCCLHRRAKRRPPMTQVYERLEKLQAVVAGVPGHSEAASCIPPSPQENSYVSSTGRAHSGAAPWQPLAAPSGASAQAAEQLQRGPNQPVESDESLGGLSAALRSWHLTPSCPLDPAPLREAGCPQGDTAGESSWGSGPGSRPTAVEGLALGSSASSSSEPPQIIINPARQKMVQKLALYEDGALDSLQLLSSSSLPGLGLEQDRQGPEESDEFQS
T3 sequence (O96017 whole entry): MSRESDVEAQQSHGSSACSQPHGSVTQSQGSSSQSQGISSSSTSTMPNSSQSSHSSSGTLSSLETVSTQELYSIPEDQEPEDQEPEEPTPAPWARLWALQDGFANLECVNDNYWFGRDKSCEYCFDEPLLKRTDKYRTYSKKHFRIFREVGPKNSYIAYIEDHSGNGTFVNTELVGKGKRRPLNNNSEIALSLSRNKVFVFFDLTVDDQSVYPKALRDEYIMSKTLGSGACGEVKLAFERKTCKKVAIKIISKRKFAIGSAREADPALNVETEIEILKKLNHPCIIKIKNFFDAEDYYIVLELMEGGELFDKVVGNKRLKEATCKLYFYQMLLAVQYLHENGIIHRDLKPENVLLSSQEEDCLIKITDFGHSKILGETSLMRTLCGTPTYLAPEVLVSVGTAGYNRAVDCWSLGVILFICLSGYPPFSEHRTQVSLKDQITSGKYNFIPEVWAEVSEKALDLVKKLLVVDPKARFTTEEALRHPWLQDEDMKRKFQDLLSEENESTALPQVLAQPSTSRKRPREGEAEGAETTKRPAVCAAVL

In the case of `CCN1CCN(C(=O)c2ccc(Nc3ncc(F)c(-c4ccc5nc(N(C)C)sc5c4)n3)nc2)CC1` [YK-2-69], the remaining activity at 1 µM in [1] is 102%; in experiment [2], 48.3%; in experiment [3], 97.6%; in experiment [4], 108%; in experiment [5], 76.5%; in [6] it was 86.2%. Further, the remaining activity at 1 µM was determined as 106% in experiment [7]; 92.7% in experiment [8]; 95.6% in experiment [9]; 114% in [10]; 90.6% in experiment [11]; 94.2% in experiment [12]. The remaining activity at 1 µM in [13] amounted to 106%; in experiment [14], 94.7%; in experiment [15] it was 65.5%; in [16], 5.23%; in [17] it was 49.6%; in [18], 89.2%. The remaining activity at 1 µM in experiment [19] is 99.4%; in [21] it was 40.7%. The “% Enzyme Activity (relative to DMSO controls)” value in [20] was 87.21% and 86.27%.
